Results: PubChem BioAssay (NCI)
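Growth conditions: 96-well plates. Treatment: test compound, 48 hours, 5 concentrations. Analysis: linear interpolation between bracketing concentrations; unreached endpoints set to highest concentration. TGI denotes the concentration required for complete inhibition of growth.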

Legend:
Assay in all cases: NCI tumour cell line growth inhibition, 48 h
MDA-MB-435 = system: MDA-MB-435
A549 NSCLC = system: A549 NSCLC
HS 578T breast = system: HS 578T breast
HCT-116 colon = system: HCT-116 colon
HL-60(TB) leukemia = system: HL-60(TB) leukemia
U251 CNS = system: U251 CNS
SF-295 CNS = system: SF-295 CNS
SF-539 CNS = system: SF-539 CNS
NCI-H23 lung = system: NCI-H23 lung
DU-145 prostate = system: DU-145 prostate
LOX IMVI melanoma = system: LOX IMVI melanoma
MALME-3M melanoma = system: MALME-3M melanoma
MDA-MB-231 breast = system: MDA-MB-231 breast
SF-268 CNS = system: SF-268 CNS
IGROV1 ovarian = system: IGROV1 ovarian
KM12 colon = system: KM12 colon
PC-3 prostate = system: PC-3 prostate
UO-31 renal = system: UO-31 renal
MCF7 breast = system: MCF7 breast
TK-10 renal = system: TK-10 renal

SMILES	TGI (MDA-MB-435) [µM]	TGI (A549 NSCLC) [µM]	TGI (HS 578T breast) [µM]	TGI (HCT-116 colon) [µM]	TGI (HL-60(TB) leukemia) [µM]	TGI (U251 CNS) [µM]	TGI (SF-295 CNS) [µM]	TGI (SF-539 CNS) [µM]	TGI (NCI-H23 lung) [µM]	TGI (DU-145 prostate) [µM]	TGI (LOX IMVI melanoma) [µM]	TGI (MALME-3M melanoma) [µM]	TGI (MDA-MB-231 breast) [µM]	TGI (SF-268 CNS) [µM]	TGI (IGROV1 ovarian) [µM]	TGI (KM12 colon) [µM]	TGI (PC-3 prostate) [µM]	TGI (UO-31 renal) [µM]	TGI (MCF7 breast) [µM]	TGI (TK-10 renal) [µM]
CCOC(=O)C(NC(C)=O)(Nc1ccc(S(N)(=O)=O)cc1)C(F)(F)F (stereo not drawn)	> 100	> 100	> 100	> 100	> 100	> 100	> 100	> 100	> 100	> 100	> 100	> 100	> 100	> 100	> 100	> 100	> 100	> 100	> 100	> 100
CC(C)(Oc1ccc(Cl)cc1)C(=O)N(C(=O)N1CCCCC1)c1ccccc1	> 100		58.5	21.2	21	39.2		25.3	33.1	27.8	26.6	85.2	25.5	56.7	22.3	41.2	20	42	47.3	
C/C=C/C=C\C=C/C(O)C(C)C(CCC(C)C1OC(=O)C=CC1C)OP(=O)(O)O (stereo not drawn)	0.773	3.83	4.28	0.717	0.17	2.5	1.01	1.7	4.83	1.76	1.09	0.641	> 71.1	2.03	0.694	1.16	0.549	0.93	0.559	1.91
O=C1/C(=C/c2ccc(O)cc2)CCc2ccc([N+](=O)[O-])cc21	> 100	> 100	> 79.8	> 100	> 100	> 100	> 100	> 100	> 100	> 100	> 100	> 100	> 100	> 100	> 100	> 100	> 100	> 81.6	> 100	> 100
CN(C)C=Nc1c2ccccc2nc2ccccc12	15.1	17.3	6.82	17.8	18.2	15	21.6	10.4	15.8	39.7	7.13	12.7	21.5	13.1	26.3		14.5	29.5	12.1	40
O=C(NCCCNCCN1C(=O)c2cccc3cc([N+](=O)[O-])cc(c23)C1=O)c1cc(-c2ccccc2)nc2ccccc12	2.91	15.7	12.5	16.8	5.76	9.12	14.8	5.07	7.55	17.3	2.93	3.24	8.17	15.9	15.2	18.6	16.7	7.46	6.51	21.8
CCOC(=O)CC1(Cc2ccc(OCc3ccccc3)cc2)C(=O)OC(c2ccccc2)N1C(=O)c1ccccc1 (stereo not drawn)	> 100	> 100	> 100	> 100	> 100	> 100	> 100	> 100	> 100	> 100	> 100	> 100	> 100	> 100	> 100	> 100	> 100	> 100	> 100	> 100
Cn1c(=O)c2nc3c(=O)n(C)c(=O)n(CC(N)=O)c3nc2n(C)c1=O	> 100		> 100	> 100	> 100	> 100	> 100	> 100	> 100	> 100	> 100	> 100	> 100	> 100	> 100	> 100	> 100	> 100	> 100	> 100
O=C(NNC1=NCCCN1)c1ccco1	> 100	> 100	> 100	> 100	> 100	> 100	> 100	> 100	> 100	> 100	> 100	> 100	> 100	> 100	> 100	> 100	> 100	> 100	> 100	> 100
C=C(C)[C@@H]1CCC2=C[C@H](C/C(C)=C\C3=CC(C)=C(O3)[C@H]1O)OC2=O	> 100	> 100	> 100		> 100	> 100	> 100	> 100		> 100	> 100	> 100	98.8	> 100	> 100	> 100	> 100	> 100	> 100	> 100
O=S1(=O)c2ccccc2C(Nc2ccccc2)N1c1ccccc1 (stereo not drawn)	> 100	> 100	> 100	> 100	> 100	> 100	> 100	> 100	> 100	> 100	> 100	> 100	> 100	> 100	> 100	> 100	> 100	> 100	> 100	> 100
N#CC(C#N)=C/C=C/c1c(Cl)cccc1Cl	4.59	7.22	5.55	2.62	4.04	4.08	4.38	2.96	2.87	3.2	3.36	3.15	3.52	4.07	4.27	3.02	3.68	3.39	7.04	6.24
